Results on six molecules are retold here after US4587254A, “1,3,4-thiadiazole derivatives, process for the production thereof and use thereof as antiulcer agent” (Wakamoto Pharmaceutical Co., Ltd., priority 1983, dated 1986).

Series [1] can be described thus: Acute toxicity in mice (LD50). The following applies: mouse, in vivo. From the text: (§1) For example, the acute toxicities of a compound of the formula (I) wherein R2 represents --NH2 in mice and rats are as shown in Table 1. The acute toxicities of compounds of the formula (I) wherein R2 represents --NHCH3, --SH or --SCH3 are nearly equal to that shown in Table 1.

A short description of series [2]: Acute toxicity in rats (LD50). The following applies: rat, in vivo.
Excerpt: as §1

The subject of series [3] is secretion of acid in the stomach. Put plainly: Inhibition of the secretion of acid in the stomach (pylorus-ligated rats). It counts as in vivo, rats (Donryu male). The following applies: duodenum, 6 h; for Acidity / Gastric juice secreted / Inhibition rate (acidity) / Inhibition rate (amount of acid discharged) / Inhibition rate (gastric juice secreted) / Inhibition rate (pepsin activity) / Pepsin activity / Amount of acid discharged: five rats. As for the experimental part: The pylorus was ligated. Immediately thereafter, a test sample was placed in the duodenum and the abdomen was closed. Six hour after the administration of the test sample, the stomach was taken out under […] anesthesia and the gastric juice was taken out. The gastric juice was centrifuged. The quantity, acidity and pepsin activity of the supernatant liquid were determined. […] The amount of the acid discharged per hour was calculated by multiplying the acidity by the quantity of the juice. Pepsin activity was determined by Anson's method [J. gen. […] The results of the tests of TAS are the averages of the group consisting of ten rats.

A short description of series [4]: Antiulcer effects (pylorus-ligated rats). The following applies: for Inhibition rate (ulcer): duodenum, 8 h. It counts as in vivo, rats (Donryu). The procedure:
Donryu rats weighing 200 to 230 g were used. Each group consisted of 6 rats. After fasting for 72 h, the rats were subjected to an abdominal operation under etheral anesthesia. The pylorus was ligated. Immediately thereafter, a given dose of a test sample was placed in the duodenum. Thereafter, neither food nor water was given. After 8 h, the stomach was taken out under etheral anesthesia and immersed in 1% formalin solution for 10 min. The stomach was cut along the greater curvature. The area of ulcer formed in the forestomach was determined by an anatomico-microscopicobservation (magnification: ×10). The rate of control of the ulcer (%) was calculated as compared with a control.

“And” between values parts separate entries of the source, which are not always exact repeats. Equal values may be shown once. Where a name gives a salt, the structure may show the parent alone.

For the molecule `Nc1nnc(NCCCOc2cccc(CN3CCCCC3)c2)s1` [2-N-{3-[3-(1-piperidinomethyl)phenoxy]propyl}amino-5-amino-1,3,4-thiadiazole], the LD50 turned out to be 53.2 mg/kg in series [1] (intravenous injection); 1220 mg/kg in series [1] (po, peroral); 91.6 mg/kg in series [2] (intravenous injection); 1410 mg/kg in series [2] (po, peroral).

As to `CNc1nnc(NCCCOc2cccc(CN3CCCCC3)c2)s1` [H2 --33, 2-N-{3-[3-(1-piperidinomethyl)phenoxy]-propyl}amino-5-methylamino-1,3,4-thiadiazole], in series [3] (6.7 mg/kg), the Acidity came out at 70.0 meq H^+ /l, the Gastric juice secreted was 4.8 mL, the “Inhibition rate (acidity)” value is listed as 14.0% and the “Inhibition rate (amount of acid discharged)” value is on record as 35.0%. Besides, in series [3] (6.7 mg/kg), the “Inhibition rate (gastric juice secreted)” value is on record as 17.0%, the “Inhibition rate (pepsin activity)” value is on record as -3.2% and the Pepsin activity worked out at 6.4 mg/mL. Further, in series [3] (20.0 mg/kg), the Acidity stood at 52.0 meq H^+ /l, the Gastric juice secreted is 2.5 mL, the “Inhibition rate (acidity)” value was determined as 36.0% and the “Inhibition rate (amount of acid discharged)” value turned out to be 70.0%. Also, in series [3] (20.0 mg/kg), the “Inhibition rate (gastric juice secreted)” value turned out to be 57.0%, the “Inhibition rate (pepsin activity)” value came out at 0% and the Pepsin activity was 6.2 mg/mL. Further, in series [3] (60.0 mg/kg), the Acidity came out at 24.0 meq H^+ /l, the Gastric juice secreted is 2.9 mL, the “Inhibition rate (acidity)” value is on record as 70.0% and the “Inhibition rate (amount of acid discharged)” value was 88.0%. In series [3] (60.0 mg/kg), the “Inhibition rate (gastric juice secreted)” value was found to be 50.0%, the “Inhibition rate (pepsin activity)” value is listed as 21.0% and the Pepsin activity came out at 4.9 mg/mL. For the same molecule, in series [3] (Table 3, 6.7 mg/kg), the “Amount of acid discharged” value is 54.0 μEq/H. Further, the “Amount of acid discharged” value in series [3] (Table 3, 20.0 mg/kg) was determined as 25.0 μEq/H. The “Amount of acid discharged” value in series [3] (Table 3, 60.0 mg/kg) came to 10.0 μEq/H.

On to `Sc1nnc(NCCCOc2cccc(CN3CCCCC3)c2)s1` [H2 --37, 2-N-{3-[3-(1-piperidinomethyl)phenoxy]propyl}amino-5-mercapto-1,3,4-thiadiazole], for which, in series [3] (6.7 mg/kg), the Acidity was 85.0 meq H^+ /l, the Gastric juice secreted worked out at 4.6 mL, the “Inhibition rate (acidity)” value is 4.5% and the “Inhibition rate (amount of acid discharged)” value was found to be 22.0%. Further, in series [3] (6.7 mg/kg), the “Inhibition rate (gastric juice secreted)” value came out at 27.0%, the “Inhibition rate (pepsin activity)” value is -7.3% and the Pepsin activity turned out to be 5.9 mg/mL. In series [3] (20.0 mg/kg), the Acidity was 81.0 meq H^+ /l, the Gastric juice secreted worked out at 5.2 mL, the “Inhibition rate (acidity)” value stood at 9.0% and the “Inhibition rate (amount of acid discharged)” value was determined as 21.0%. In addition, in series [3] (20.0 mg/kg), the “Inhibition rate (gastric juice secreted)” value turned out to be 18.0%, the “Inhibition rate (pepsin activity)” value was -7.3% and the Pepsin activity is 5.9 mg/mL. Besides, in series [3] (60.0 mg/kg), the Acidity is recorded as 67.0 meq H^+ /l, the Gastric juice secreted stood at 3.6 mL, the “Inhibition rate (acidity)” value was 24.0% and the “Inhibition rate (amount of acid discharged)” value was determined as 57.0%. For the same molecule, in series [3] (60.0 mg/kg), the “Inhibition rate (gastric juice secreted)” value was 43.0%, the “Inhibition rate (pepsin activity)” value was 1.8% and the Pepsin activity came to 5.4 mg/mL. Also, the “Amount of acid discharged” value in series [3] (Table 4, 6.7 mg/kg) was found to be 67.0 μEq/h. The “Amount of acid discharged” value in series [3] (Table 4, 20.0 mg/kg) stood at 68.0 μEq/h. Also, the “Amount of acid discharged” value in series [3] (Table 4, 60.0 mg/kg) is 37.0 μEq/h.

Take `Nc1nnc(NCCCOc2cccc(CN3CCCCC3)c2)s1` [TAS, 2-N-{3-[3-(1-piperidinomethyl)phenoxy]propyl}-amino-5-amino-1,3,4-thiadiazole hydrochloride]: the “Rate of control of the amount of acid discharged” value is 85.7% in series [3] (Table 5, 6.7 mg/kg, ten rats); 91.4% in series [3] (Table 5, 20.0 mg/kg, ten rats); 100% in series [3] (Table 5, 60.0 mg/kg, ten rats); 40.2% in series [3] (Table 6, 0.7 mg/kg); 81.5% in series [3] (Table 6, 6.7 mg/kg); 91.5% in series [3] (Table 6, 20.0 mg/kg). Further, the “Rate of control of the amount of pepsin discharged” value (shortened to “Rate … of pepsin discharged”) in series [3] (Table 5, 6.7 mg/kg, ten rats) is 13.6%; in series [3] (Table 5, 20.0 mg/kg, ten rats) it was 25.8%; in series [3] (Table 5, 60.0 mg/kg, ten rats), 86.4%; in series [3] (Table 6, 0.7 mg/kg) it was -1.3%; in series [3] (Table 6, 6.7 mg/kg), 15.2%; in series [3] (Table 6, 20.0 mg/kg), 30.4%. Also, the “Rate of inhibition of acidity” value in series [3] (Table 5, 6.7 mg/kg, ten rats) is recorded as 67.4%; in series [3] (Table 5, 20.0 mg/kg, ten rats), 74.0%; in series [3] (Table 5, 60.0 mg/kg, ten rats), 100%; in series [3] (Table 6, 0.7 mg/kg), 22.4%; in series [3] (Table 6, 6.7 mg/kg), 65.7%; in series [3] (Table 6, 20.0 mg/kg), 75.0%. In addition, the “Rate of inhibition of the secretion of gastric juice” value in series [3] (Table 5, 6.7 mg/kg, ten rats) is given as 57.7%; in series [3] (Table 5, 20.0 mg/kg, ten rats) it was 65.4%; in series [3] (Table 5, 60.0 mg/kg, ten rats), 82.7%; in series [3] (Table 6, 0.7 mg/kg) it was 23.51%; in series [3] (Table 6, 6.7 mg/kg), 52.9%; in series [3] (Table 6, 20.0 mg/kg), 66.7%. Also, the “Inhibition rate (ulcer)” value was 60.0% in series [4] (6.3 mg/kg), 90.0% in series [4] (12.5 mg/kg), 95.0% in series [4] (25.0 mg/kg) and 100% in series [4] (50.0 mg/kg). The “antiulcer effects compared with 200 mg/kg of cimetidine or ranitidine” value in series [4] (12.5 to 50 mg/kg) was “far superior”.

Turning to `CN/C(=N/CCSCc1nc[nH]c1C)NC#N` [cimetidine, reference compound], the Acidity in series [3] (6.7 mg/kg) was 85.0 meq H^+ /l and 76.0 meq H^+ /l; in series [3] (20.0 mg/kg) it was 77.0 meq H^+ /l and 79.0 meq H^+ /l; in series [3] (60.0 mg/kg), 61.0 meq H^+ /l and 62.0 meq H^+ /l. In addition, the Gastric juice secreted in series [3] (6.7 mg/kg) was 5.4 mL and 5.0 mL; in series [3] (20.0 mg/kg), 4.8 mL and 4.5 mL; in series [3] (60.0 mg/kg) it was 3.7 mL and 4.5 mL. For the same molecule, the Pepsin activity is 7.0 mg/mL and 5.5 mg/mL in series [3] (6.7 mg/kg); 6.2 mg/mL and 5.1 mg/mL in series [3] (20.0 mg/kg); 6.3 mg/mL in series [3] (60.0 mg/kg). Moreover, the “Inhibition rate (acidity)” value is 5.4% and 11.0% in series [3] (20.0 mg/kg); 25.0% and 31.0% in series [3] (60.0 mg/kg). For the same molecule, the “Inhibition rate (amount of acid discharged)” value was 31.0% and 29.0% in series [3] (20.0 mg/kg); 55.0% and 45.0% in series [3] (60.0 mg/kg). For the same molecule, the “Inhibition rate (gastric juice secreted)” value in series [3] (20.0 mg/kg) was 17.0% and 29.0%; in series [3] (60.0 mg/kg), 36.0% and 29.0%. In series [3] (20.0 mg/kg), the “Inhibition rate (pepsin activity)” value is 0% and 7.3%. Also, the “Amount of acid discharged” value is recorded as 79.0 μEq/H in series [3] (Table 3, 6.7 mg/kg); 57.0 μEq/H in series [3] (Table 3, 20.0 mg/kg); 38.0 μEq/H in series [3] (Table 3, 60.0 mg/kg); 67.0 μEq/h in series [3] (Table 4, 6.7 mg/kg); 61.0 μEq/h in series [3] (Table 4, 20.0 mg/kg); 47.0 μEq/h in series [3] (Table 4, 60.0 mg/kg). The “Rate of control of the amount of acid discharged” value in series [3] (Table 5, 6.7 mg/kg, ten rats) came to 2.5%; in series [3] (Table 5, 20.0 mg/kg, ten rats), 25.6%; in series [3] (Table 5, 60.0 mg/kg, ten rats), 51.1%. For the same molecule, the “Rate … of pepsin discharged” value is -6.1% in series [3] (Table 5, 6.7 mg/kg, ten rats); 6.1% in series [3] (Table 5, 20.0 mg/kg, ten rats); 4.5% in series [3] (Table 5, 60.0 mg/kg, ten rats). Further, the “Rate of inhibition of acidity” value in series [3] (Table 5, 6.7 mg/kg, ten rats) is on record as 2.9%; in series [3] (Table 5, 20.0 mg/kg, ten rats), 12.4%; in series [3] (Table 5, 60.0 mg/kg, ten rats) it was 30.9%. For the same molecule, the “Rate of inhibition of the secretion of gastric juice” value is reported as 3.8% in series [3] (Table 5, 6.7 mg/kg, ten rats); 7.7% in series [3] (Table 5, 20.0 mg/kg, ten rats); 28.8% in series [3] (Table 5, 60.0 mg/kg, ten rats). Further, the “Inhibition rate (ulcer)” value is recorded as 10% in series [4] (100 mg/kg) and 60% in series [4] (200 mg/kg).

For the molecule `CNC(=C[N+](=O)[O-])NCCSCc1ccc(CN(C)C)o1` [ranitidine, reference compound], the “Rate of control of the amount of acid discharged” value is recorded as 19.3% in series [3] (Table 5, 6.7 mg/kg, ten rats); 54.2% in series [3] (Table 5, 20.0 mg/kg, ten rats); 67.4% in series [3] (Table 5, 60.0 mg/kg, ten rats). The “Rate … of pepsin discharged” value in series [3] (Table 5, 6.7 mg/kg, ten rats) is given as 1.5%; in series [3] (Table 5, 20.0 mg/kg, ten rats) it was -4.5%; in series [3] (Table 5, 60.0 mg/kg, ten rats), -3.0%. For the same molecule, the “Rate of inhibition of acidity” value was 11.3% in series [3] (Table 5, 6.7 mg/kg, ten rats); 28.2% in series [3] (Table 5, 20.0 mg/kg, ten rats); 50.1% in series [3] (Table 5, 60.0 mg/kg, ten rats). The “Rate of inhibition of the secretion of gastric juice” value in series [3] (Table 5, 6.7 mg/kg, ten rats) amounted to 7.7%; in series [3] (Table 5, 20.0 mg/kg, ten rats), 23.1%; in series [3] (Table 5, 60.0 mg/kg, ten rats), 34.6%. Moreover, the “Inhibition rate (ulcer)” value came out at 50% in series [4] (100 mg/kg) and 85% in series [4] (200 mg/kg).

As usually defined, the LD50 is the dose expected to kill half of the subjects tested. Low readings indicate a more toxic substance, high ones a less toxic substance.
